The values that follow come from article PMC12657321, “Pre-clinical evaluation of a potent and effective Pin1-degrading agent in pancreatic cancer” (Molecular Therapy Oncology, 2025).

Molecules are shown by their SMILES. Non-standard residues stand in square brackets, D forms with d. Residues, ends and D or L forms follow the SMILES beside them. *: point of attachment. Trp(6-Cl) = N[C@@H](Cc1c[nH]c2cc(Cl)ccc12)C(=O)O; Pip = O=C(O)[C@@H]1CCCCN1; ClAc = O=C(CCl)* Where only a bound is given, the exact number is not on record here.

One data set has as its target T1, human Pin1 (Homo sapiens, UniProt Q13526).
T1 construct: Residues 1–163 of human Pin1 were expressed with a thrombin cleavage site and a HisTag at the N-terminus; 6xHis (N); thrombin cleavage site (N); made in house; host or cells: E. coli
Nature of the data set: DELFIA displacement assay (biotinylated D-peptide / His-tagged Pin1). The data set is classed as binding. Particulars: DELFIA displacement of biotinylated D-peptide from His-tagged Pin1; compound incubation 6 h; ± standard error of duplicate measurements. How it is done: To assess the ability of our agents to bind and inhibit Pin1, we developed a robust biochemical assay based on the dissociation-enhanced lanthanide fluorescent immunoassay (DELFIA) platform. In our implementation, we used a biotinylated form of a known Pin1-binding peptide (D-peptide) to monitor the ability of test agents to inhibit the interaction between Pin1 and the D-peptide at various incubation times, as described previously.[32] […] In addition, as mentioned above and reported recently, we tested the ability of the agents to reduce Pin1 thermal stability in vitro by thermal denaturation measurements.[32] […] Pin1 unfolding causes a nonspecific interaction between the water-quenched fluorescent dye and the protein’s exposed hydrophobic residues, resulting in increased fluorescence. A shift in the thermal denaturation temperature between the free and bound protein is interpreted as a stabilization or destabilization event induced by the test ligand. […] To further assess whether these agents could be suitable for in vivo efficacy studies, we also performed stability assays in aqueous buffer and in plasma from various species (Table S2, Figure S2). We tested the stability of our agents in plasma from multiple mouse strains as well as in human plasma (Figure S2), given the peptide nature of the compounds. […]

The subject of the next data set is CD-1 mice. The format is in vivo, mouse. How it is done:
(§1) The effect of Pin1 degradation by 164B8 on cell viability was assessed using live-cell analysis (IncuCyte S3). […] Furthermore, to evaluate the acute single-dose toxicity of 164B8 in vivo, CD-1 immune-competent mice were exposed to increasing doses of 164B8. […] Therefore, a maximum tolerated dose was not reached (Figure S12).
Figure S12: A) Acute toxicity study at 100mg/kg. In this preliminary safety study, 3 CD -1 mice were treated with a single dose of 100 mg/kg of 164B8. The injections were administered intraperitoneally (ip), and the body weight of the mice was measured for several days after the injection. B) Body weight control during the in -vivo efficacy study. The body weights of the mice in the three groups were measured on the day of treatment (day 0) and 7 and 14 days after.
(§2) (1 picture or pasted object on this page, not shown here)

In the next data set the test system is MIA PaCa-2 cells. The format is cell-based, human. Particulars: 72 h. How it is done: as §1
Figure S11: Mia PaCa-2 and KPC cells were treated with different doses of 164B8, and the
IncuCyte S3 live-cell analysis system was used to monitor the agent’s activity every 3 hours for
as §2

Data set [1] in a line: Stability in plasma from esterase-deficient (ES1e) mice. Particulars: mouse, 37°C, up to 6 h, acetonitrile quench, LC-MS/MS. The format is in vitro ADME. How it is done:
(§3) A solution of a Pin1 inhibitor was spiked into blank plasma at 1 μg/mL in various solutions, including an aqueous buffer (1× phosphate-buffered saline; Fisher Scientific, Fair Lawn, NJ), human plasma (Innovative Research Inc., Novi, MI), wild-type mouse plasma (Innovative Research Inc., Novi, MI), plasma form esterase-deficient mice (City of Hope, Duarte, CA), and plasma from Black 6-Cg mice (City of Hope, Duarte, CA).
(§4) The spiked plasma samples were incubated at 37°C for up to 6 h. At each designated time point, a 20 μL aliquot of the incubation sample was removed and quenched in 100 μL of acetonitrile. At the end of the incubation, the quenched samples were vortexed and centrifuged for 10 min at 4°C and 20,000 × g. The resulting supernatant was reconstituted and analyzed by LC-MS/MS.
(§5) Table S2. Stability half-life of agents reported in Table 1 after incubation at 37 °C in various media. Acq represents aqueous buffer composed of 1x phosphate buffered saline (Fisher Scientific, Fair Lawn, NJ); human represents human plasma (Innovative Research Inc., Novi, MI); mouse wt represents wild type mouse plasma (Innovative Research Inc., Novi, MI); mouse ES1e represents plasma form esterase deficient mice (City of Hope, Duarte, CA); mouse B6-Cg represents plasma from black 6-Cg mice (City of Hope, Duarte, CA). See Figure 1 for the chemical structures of these compounds.
(§6) Compound Acq Human Mouse Mouse ES1e Mouse

Data set [2] is described as follows: Stability in aqueous buffer (1x PBS). The format is physicochemical. Particulars: 1x phosphate buffered saline, 1 μg/mL, 37°C, up to 6 h, acetonitrile quench, LC-MS/MS. Here is the method: as §3, §4, §5, §6

By IC50 is commonly meant the point on the concentration scale where inhibition reaches its midpoint. A higher IC50 goes with a need for much substance. As usually defined, the EC50 is the concentration at which the effect is half-maximal. Usually half-life stands for the time in which the quantity being followed falls by half. Higher therefore signals slow decline.

T1 sequence (Q13526 whole entry, the tested form may be a part): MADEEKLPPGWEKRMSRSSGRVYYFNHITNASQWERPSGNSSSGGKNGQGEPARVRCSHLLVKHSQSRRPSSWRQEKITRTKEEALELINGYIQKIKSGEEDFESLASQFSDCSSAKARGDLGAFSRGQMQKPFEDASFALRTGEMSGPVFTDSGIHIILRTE

As for `CNC(=O)[C@H](Cc1c[nH]c2ccccc12)NC(=O)[C@@H]1CCCCN1C(=O)[C@H](Cc1c[nH]c2cc(Cl)ccc12)NC(=O)CCl` [164B8] (ClAc-[Trp(6-Cl)]-[Pip]-Trp-NHMe), at human Pin1, the half-maximal inhibitory concentration (IC50) is 0.00465 ± 4e-05 µM. Besides, the Acute single-dose toxicity entry in the data set on CD-1 mice (100 mg/kg single dose intraperitoneally (highest soluble dose), monitored over 2 weeks, 3 mice) is “did not produce any observable signs of acute toxicity”. For the same compound, the Maximum tolerated dose entry in the data set with CD-1 mice (single intraperitoneal dose up to 100 mg/kg) is recorded as “not reached”. The compound also showed an EC50 with MIA PaCa-2 cells of 8.4 µM. The compound also displayed a half-life at 1 μg/mL in data set [1] of over 5 h. In addition, the “Stability half-life, Acq (aqueous buffer)” value in data set [2] is recorded as over 5 h.
